Data taken from patent US10499642B2, “Isoxazoline-substituted benzamides and analogues as insecticides” (SYNGENTA PARTICIPATIONS AG, priority 2015, dated 2019).

How the values were obtained:
Format in all cases: in vivo
Myzus persicae = Myzus persicae (green peach aphid) sunflower leaf disc test; conditions: foliar, 144 h
Method: Myzus persicae (Green Peach Aphid):
Sunflower leaf discs were placed on agar in a 24-well microtiter plate and sprayed with test solutions at an application rate of 200 ppm. After drying, the leaf discs were infested with an aphid population of mixed ages. After an incubation period of 6 days after treatment, samples were checked for mortality. The following compounds gave at least 80% mortality of Myzus persicae: […]

Plutella xylostella = Plutella xylostella (diamond back moth) artificial diet test; conditions: 120 h, read-out: effect in at least one of the two categories (mortality or growth inhibition)
Method: Plutella xylostella (Diamond Back Moth):
(§1) 24-well microtiter plates with artificial diet were treated with aqueous test solutions prepared from 10′000 ppm DMSO stock solutions by pipetting. After drying, the plates were infested with L2 larvae (10 to 15 per well). The samples were assessed for mortality and growth inhibition in comparison to untreated samples 5 days after infestation. The following compounds gave an effect of at least 80% in at least one of the two categories (mortality or growth inhibition) at an application rate of 200 ppm: […]

Diabrotica Balteata = test: Diabrotica balteata (corn root worm) maize sprout test; conditions: 96 h, read-out: effect in at least one of the two categories (mortality or growth inhibition)
Method: Diabrotica Balteata, (Corn Root Worm)
as §1, with “Maize sprouts, placed on an agar layer in 24-well” for “24-well”, “plates” for “plates with artificial diet”, “spraying.” for “pipetting.”, “(6” for “(10”, “10” for “15”, “4” for “5”

Spodoptera littoralis = Spodoptera littoralis (Egyptian cotton leaf worm) cotton leaf disc test; conditions: foliar, 72 h, read-out: control (at least one of mortality, anti-feedant effect, and growth inhibition)
Method: Spodoptera littoralis (Egyptian Cotton Leaf Worm)
Cotton leaf discs were placed on agar in 24-well microtiter plates and sprayed with aqueous test solutions prepared from 10′000 ppm DMSO stock solutions. After drying the leaf discs were infested with five L1 larvae. The samples were assessed for mortality, anti-feedant effect, and growth inhibition in comparison to untreated samples 3 days after infestation. Control of Spodoptera littoralis by a test sample is when at least one of mortality, anti-feedant effect, and growth inhibition is higher than the untreated sample.

Thrips tabaci = Thrips tabaci (onion thrips) sunflower leaf disc test; conditions: foliar, 144 h
Method: Thrips tabaci (Onion Thrips):
(§2) Sunflower leaf discs were placed on agar in 24-well microtiter plates and sprayed with aqueous test solutions prepared from 10′000 ppm DMSO stock solutions. After drying the leaf discs were infested with a thrips population of mixed ages. The samples were assessed for mortality 6 days after infestation.

Tetranychus urticae = Tetranychus urticae (two-spotted spider mite) bean leaf disc test; conditions: foliar, 192 h
Method: Tetranychus urticae (Two-Spotted Spider Mite):
as §2, with “Bean” for “Sunflower”, “discs” for “discs were placed”, “were” for “and”, “mite” for “thrips”, “on mixed population (mobile stages) 8” for “6”

Cc1cc(C2=NO[C@@](c3cc(Cl)c(F)c(Cl)c3)(C(F)(F)F)C2)ccc1C(=O)N[C@@H]1CC(Br)=NO1 (single isomer, unassigned) [Compound A147]
≥ 80%: mortality at 200 ppm (Myzus persicae) | percent effect (mortality or growth inhibition) at 200 ppm (Plutella xylostella) | percent effect (mortality or growth inhibition) at 200 ppm (Diabrotica Balteata) | percent control (mortality, anti-feedant effect or growth inhibition) at 200 ppm (Spodoptera littoralis) | mortality at 200 ppm (Thrips tabaci) | mortality at 200 ppm (Tetranychus urticae)

COC1=NO[C@H](NC(=O)c2ccc(C3=NO[C@@](c4cc(Cl)c(Cl)c(Cl)c4)(C(F)(F)F)C3)cc2C)C1 (single isomer, unassigned) [Compound A148]
≥ 80%: mortality at 200 ppm (Myzus persicae) | percent effect (mortality or growth inhibition) at 200 ppm (Plutella xylostella) | percent effect (mortality or growth inhibition) at 200 ppm (Diabrotica Balteata) | percent control (mortality, anti-feedant effect or growth inhibition) at 200 ppm (Spodoptera littoralis) | mortality at 200 ppm (Thrips tabaci) | mortality at 200 ppm (Tetranychus urticae)

COC1=NO[C@@H](NC(=O)c2ccc(C3=NO[C@@](c4cc(Cl)c(Cl)c(Cl)c4)(C(F)(F)F)C3)cc2C)C1 (single isomer, unassigned) [Compound A149]
≥ 80%: mortality at 200 ppm (Myzus persicae) | percent effect (mortality or growth inhibition) at 200 ppm (Plutella xylostella) | percent effect (mortality or growth inhibition) at 200 ppm (Diabrotica Balteata) | percent control (mortality, anti-feedant effect or growth inhibition) at 200 ppm (Spodoptera littoralis) | mortality at 200 ppm (Thrips tabaci) | mortality at 200 ppm (Tetranychus urticae)

COC1=NO[C@H](NC(=O)c2ccc(C3=NO[C@@](c4cc(Cl)c(F)c(Cl)c4)(C(F)(F)F)C3)cc2C)C1 (single isomer, unassigned) [Compound A150]
≥ 80%: mortality at 200 ppm (Myzus persicae) | percent effect (mortality or growth inhibition) at 200 ppm (Plutella xylostella) | percent effect (mortality or growth inhibition) at 200 ppm (Diabrotica Balteata) | percent control (mortality, anti-feedant effect or growth inhibition) at 200 ppm (Spodoptera littoralis) | mortality at 200 ppm (Thrips tabaci) | mortality at 200 ppm (Tetranychus urticae)

Cc1cc(C2=NO[C@@](c3cc(Cl)cc(Cl)c3)(C(F)(F)F)C2)ccc1C(=O)N[C@@H]1CC(C(F)(F)F)=NO1 (single isomer, unassigned) [Compound A154]
≥ 80%: mortality at 200 ppm (Myzus persicae) | percent effect (mortality or growth inhibition) at 200 ppm (Plutella xylostella) | percent effect (mortality or growth inhibition) at 200 ppm (Diabrotica Balteata) | percent control (mortality, anti-feedant effect or growth inhibition) at 200 ppm (Spodoptera littoralis) | mortality at 200 ppm (Thrips tabaci) | mortality at 200 ppm (Tetranychus urticae)

Cc1cc(C2=NO[C@@](c3cc(Cl)cc(Cl)c3)(C(F)(F)F)C2)ccc1C(=O)N[C@H]1CC(C(F)(F)F)=NO1 (single isomer, unassigned) [Compound A155]
≥ 80%: mortality at 200 ppm (Myzus persicae) | percent effect (mortality or growth inhibition) at 200 ppm (Plutella xylostella) | percent effect (mortality or growth inhibition) at 200 ppm (Diabrotica Balteata) | percent control (mortality, anti-feedant effect or growth inhibition) at 200 ppm (Spodoptera littoralis) | mortality at 200 ppm (Thrips tabaci) | mortality at 200 ppm (Tetranychus urticae)

Cc1cc(C2=NO[C@@](c3cc(Cl)cc(Cl)c3)(C(F)(F)F)C2)ccc1C(=O)N[C@@H]1CC(OCC(F)(F)F)=NO1 (single isomer, unassigned) [Compound A156]
≥ 80%: mortality at 200 ppm (Myzus persicae) | percent effect (mortality or growth inhibition) at 200 ppm (Plutella xylostella) | percent effect (mortality or growth inhibition) at 200 ppm (Diabrotica Balteata) | percent control (mortality, anti-feedant effect or growth inhibition) at 200 ppm (Spodoptera littoralis) | mortality at 200 ppm (Thrips tabaci) | mortality at 200 ppm (Tetranychus urticae)

CCOC1=NO[C@H](NC(=O)c2ccc(C3=NO[C@@](c4cc(Cl)cc(Cl)c4)(C(F)(F)F)C3)cc2C)C1 (single isomer, unassigned) [Compound A158]
≥ 80%: mortality at 200 ppm (Myzus persicae) | percent effect (mortality or growth inhibition) at 200 ppm (Plutella xylostella) | percent effect (mortality or growth inhibition) at 200 ppm (Diabrotica Balteata) | percent control (mortality, anti-feedant effect or growth inhibition) at 200 ppm (Spodoptera littoralis) | mortality at 200 ppm (Thrips tabaci) | mortality at 200 ppm (Tetranychus urticae)

Cc1cc(C2=NO[C@@](c3cc(Cl)c(F)c(Cl)c3)(C(F)(F)F)C2)ccc1C(=O)NC1CC(Br)=NO1 (stereo partly drawn) [Compound A001, N-(3-bromo-4,5-dihydroisoxazol-5-yl)-4-[(5S)-5-(3,5-dichloro-4-fluoro-phenyl)-5-(trifluoromethyl)-4H-isoxazol-3-yl]-2-methyl-benzamide]
≥ 80%: mortality at 200 ppm (Myzus persicae) | percent effect (mortality or growth inhibition) at 200 ppm (Plutella xylostella) | percent effect (mortality or growth inhibition) at 200 ppm (Diabrotica Balteata) | percent control (mortality, anti-feedant effect or growth inhibition) at 200 ppm (Spodoptera littoralis) | mortality at 200 ppm (Thrips tabaci) | mortality at 200 ppm (Tetranychus urticae)

Cc1cc(C2=NO[C@@](c3cc(Cl)c(F)c(Cl)c3)(C(F)(F)F)C2)ccc1C(=O)N(C=O)C1CC(Br)=NO1 (stereo partly drawn) [Compound A002, N-(3-bromo-4,5-dihydroisoxazol-5-yl)-4-[(5S)-5-(3,5-dichloro-4-fluoro-phenyl)-5-(trifluoromethyl)-4H-isoxazol-3-yl]-N-formyl-2-methyl-benzamide]
≥ 80%: mortality at 200 ppm (Myzus persicae) | percent effect (mortality or growth inhibition) at 200 ppm (Plutella xylostella) | percent effect (mortality or growth inhibition) at 200 ppm (Diabrotica Balteata) | percent control (mortality, anti-feedant effect or growth inhibition) at 200 ppm (Spodoptera littoralis) | mortality at 200 ppm (Thrips tabaci) | mortality at 200 ppm (Tetranychus urticae)

Cc1cc(C2=NO[C@@](c3cc(Cl)c(F)c(Cl)c3)(C(F)(F)F)C2)ccc1C(=O)NC1CC(Cl)=NO1 (stereo partly drawn) [Compound A003, N-(3-chloro-4,5-dihydroisoxazol-5-yl)-4-[(5S)-5-(3,5-dichloro-4-fluoro-phenyl)-5-(trifluoromethyl)-4H-isoxazol-3-yl]-2-methyl-benzamide]
≥ 80%: mortality at 200 ppm (Myzus persicae) | percent effect (mortality or growth inhibition) at 200 ppm (Plutella xylostella) | percent effect (mortality or growth inhibition) at 200 ppm (Diabrotica Balteata) | percent control (mortality, anti-feedant effect or growth inhibition) at 200 ppm (Spodoptera littoralis) | mortality at 200 ppm (Thrips tabaci) | mortality at 200 ppm (Tetranychus urticae)

Cc1cc(C2=NO[C@@](c3cc(Cl)c(F)c(Cl)c3)(C(F)(F)F)C2)ccc1C(=O)N(C=O)C1CC(C(F)(F)F)=NO1 (stereo partly drawn) [Compound A004, 4-[(5S)-5-(3,5-dichloro-4-fluoro-phenyl)-5-(trifluoromethyl)-4H-isoxazol-3-yl]-N-formyl-2-methyl-N-[3-(trifluoromethyl)-4,5-dihydroisoxazol-5-yl]benzamide]
≥ 80%: mortality at 200 ppm (Myzus persicae) | percent effect (mortality or growth inhibition) at 200 ppm (Plutella xylostella) | percent effect (mortality or growth inhibition) at 200 ppm (Diabrotica Balteata) | percent control (mortality, anti-feedant effect or growth inhibition) at 200 ppm (Spodoptera littoralis) | mortality at 200 ppm (Thrips tabaci) | mortality at 200 ppm (Tetranychus urticae)

Cc1cc(C2=NO[C@@](c3cc(Cl)c(F)c(Cl)c3)(C(F)(F)F)C2)ccc1C(=O)NC1CC(C(F)(F)F)=NO1 (stereo partly drawn) [Compound A005, 4-[(5S)-5-(3,5-dichloro-4-fluoro-phenyl)-5-(trifluoromethyl)-4H-isoxazol-3-yl]-2-methyl-N-[3-(trifluoromethyl)-4,5-dihydroisoxazol-5-yl]benzamide]
≥ 80%: mortality at 200 ppm (Myzus persicae) | percent effect (mortality or growth inhibition) at 200 ppm (Plutella xylostella) | percent effect (mortality or growth inhibition) at 200 ppm (Diabrotica Balteata) | percent control (mortality, anti-feedant effect or growth inhibition) at 200 ppm (Spodoptera littoralis) | mortality at 200 ppm (Thrips tabaci) | mortality at 200 ppm (Tetranychus urticae)

CC1=NOC(N(C=O)C(=O)c2ccc(C3=NO[C@@](c4cc(Cl)c(F)c(Cl)c4)(C(F)(F)F)C3)cc2C)C1 (stereo partly drawn) [Compound A008, 4-[(5S)-5-(3,5-dichloro-4-fluoro-phenyl)-5-(trifluoromethyl)-4H-isoxazol-3-yl]-N-formyl-2-methyl-N-(3-methyl-4,5-dihydroisoxazol-5-yl)benzamide]
≥ 80%: mortality at 200 ppm (Myzus persicae) | percent effect (mortality or growth inhibition) at 200 ppm (Plutella xylostella) | percent effect (mortality or growth inhibition) at 200 ppm (Diabrotica Balteata) | percent control (mortality, anti-feedant effect or growth inhibition) at 200 ppm (Spodoptera littoralis) | mortality at 200 ppm (Thrips tabaci) | mortality at 200 ppm (Tetranychus urticae)

Cc1cc(C2=NO[C@@](c3cc(Cl)c(Cl)c(Cl)c3)(C(F)(F)F)C2)ccc1C(=O)NC1CC(OCC(=O)N(C)C)=NO1 (stereo partly drawn) [Compound A114, N-[3-[2-(dimethylamino)-2-oxo-ethoxy]-4,5-dihydroisoxazol-5-yl]-2-methyl-4-[(5S)-5-(3,4,5-trichlorophenyl)-5-(trifluoromethyl)-4H-isoxazol-3-yl]benzamide]
≥ 80%: mortality at 200 ppm (Myzus persicae) | percent effect (mortality or growth inhibition) at 200 ppm (Plutella xylostella) | percent control (mortality, anti-feedant effect or growth inhibition) at 200 ppm (Spodoptera littoralis) | mortality at 200 ppm (Thrips tabaci) | mortality at 200 ppm (Tetranychus urticae)

C/C(N)=N/OC1=NOC(NC(=O)c2ccc(C3=NO[C@@](c4cc(Cl)c(F)c(Cl)c4)(C(F)(F)F)C3)cc2C)C1 (stereo partly drawn) [Compound A143, N-[3-[(Z)-1-aminoethylideneamino]oxy-4,5-dihydroisoxazol-5-yl]-4-[(5S)-5-(3,5-dichloro-4-fluoro-phenyl)-5-(trifluoromethyl)-4H-isoxazol-3-yl]-2-methyl-benzamide]
≥ 80%: percent effect (mortality or growth inhibition) at 200 ppm (Plutella xylostella) | percent effect (mortality or growth inhibition) at 200 ppm (Diabrotica Balteata) | percent control (mortality, anti-feedant effect or growth inhibition) at 200 ppm (Spodoptera littoralis) | mortality at 200 ppm (Thrips tabaci) | mortality at 200 ppm (Tetranychus urticae)
